Laboratory results: ChEMBL document CHEMBL4354827, “Discovery of Novel, Potent, Brain-Permeable, and Orally Efficacious Positive Allosteric Modulator of α7 Nicotinic Acetylcholine Receptor [4-(5-(4-Chlorophenyl)-4-methyl-2-propionylthiophen-3-yl)benzenesulfonamide]: Structure-Activity Relationship and Preclinical Characterization” (J Med Chem, 2020)
Active and inactive are the calls of the source. The rule behind the calls is not given here.

Experiments:
[1] = Brain to plasma permeability coefficient, Kp in Wistar rat at 10 mg/kg, po after 8 hrs by LC-MS/MS analysis; format: ADME, organism-based
[2] = Ratio of AUCt in brain to plasma in Wistar rat at 10 mg/kg, po after 144 hrs by LC-MS/MS analysis; format: ADME, organism-based
[3] = Volume of distribution at steady state in BALB/c mouse at 1 mg/kg, iv after 0.083 to 144 hrs by LC-MS/MS analysis; format: ADME, organism-based; details: in vivo, read-out: Vdss
[4] = Cmax in human at 7.5 to 100 mg after 1 to 2.5 hrs; format: ADME; details: in vivo
Rattus norvegicus [5] = experiment: Improvement in social recognition time delay-induced Sprague-Dawley rat model of amnesia assessed as reduction in recognition index at 0.15 mg/kg, po for 7 days and measured on day 9 (reference value: 1.05); format: functional
[6] = Protein binding in dog plasma at 5 uM incubated for 16 hrs under shaking condition by LC/MS/MS based rapid equilibrium dialysis method; format: ADME, cell-free, Canis lupus familiaris; details: read-out: PPB (converted)
[7] = Cmax in Wistar rat plasma at 10 mg/kg, po after 1 to 144 hrs by LC-MS/MS analysis; format: ADME, organism-based; design: dose 10 mg/kg, route oral
[8] = Drug concentration in Wistar rat brain at 10 mg/kg, po after 48 hrs by LC-MS/MS analysis; format: ADME, organism-based; details: read-out: Drug uptake
Rattus norvegicus [9] = experiment: Memory enhancement effect in scopolamine-induced Wistar rat model of amnesia assessed as increase in novel object discrimination index at 0.05 mg/kg, po administered as single dose and measured on day 9 by novel object recognition test (reference value: 0.21); format: functional
Rattus norvegicus [10] = experiment: Memory enhancement effect in time-delay induced Wistar rat model of amnesia assessed as increase in novel object discrimination at 3 mg/kg, po administered as single dose after acquisition trial by novel object recognition test (reference value: 0.08); format: functional
Rattus norvegicus [11] = experiment: Memory enhancement effect in time-delay induced Wistar rat model of amnesia assessed as exploration time for familiar object in retention trial at 0.05 mg/kg, po for 7 days and measured on day 8 by novel object recognition test (reference value: 10.20 sec); format: functional
Rattus norvegicus [12] = experiment: Memory enhancement effect in scopolamine-induced Wistar rat model of amnesia assessed as exploration time for object2 in acquisition trial at 0.50 mg/kg, po for 7 days and measured on day 8 by novel object recognition test (reference value: 15.63 sec); format: functional
Rattus norvegicus [13] = experiment: Memory enhancement effect in scopolamine-induced Wistar rat model of amnesia assessed as exploration time for object1 in acquisition trial at 0.05 mg/kg, po for 7 days and measured on day 8 by novel object recognition test (reference value: 16.11 sec); format: functional
Rattus norvegicus [14] = experiment: Memory enhancement effect in scopolamine-induced Wistar rat model of amnesia assessed as increase in novel object discrimination index at 0.5 mg/kg, po administered as single dose and measured on day 9 by novel object recognition test (reference value: 0.21); format: functional
[15] = Half life in BALB/c mouse at 1 mg/kg, iv after 0.083 to 144 hrs by LC-MS/MS analysis; format: ADME, organism-based; details: in vivo
[16] = Protein binding in mouse plasma at 5 uM incubated for 16 hrs under shaking condition by LC/MS/MS based rapid equilibrium dialysis method; format: ADME, cell-free; details: read-out: PPB (converted)
Rattus norvegicus [17] = experiment: Memory enhancement effect in scopolamine-induced Wistar rat model of amnesia assessed as increase in discrimination index at 0.15 mg/kg, po for 7 days and measured on day 8 by novel object recognition test (reference value: 0.21); format: functional
[18] = target: T1, Neuronal acetylcholine receptor subunit alpha-7 (Homo sapiens, UniProt P36544); experiment: Positive allosteric modulatory activity against alpha7 nAChR in human IMR-32 cells assessed as potentiation of PNU-282987-induced Ca2+ […] at 1 uM by FLIPR assay relative to control; format: cell-based
[19] = Unbound brain-to-plasma concentration ratio in Wistar rat at 10 mg/kg, po after 1 hr by LC-MS/MS analysis; format: ADME, organism-based; details: read-out: K(p,uu,brain)
Rattus norvegicus [20] = experiment: Memory enhancement effect in scopolamine-induced Wistar rat model of amnesia assessed as exploration time for object1 in acquisition trial at 0.05 mg/kg, po administered as single dose and measured on day 8 by novel object recognition test (reference value: 16.11 sec); format: functional
Rattus norvegicus [21] = experiment: Improvement in social recognition time delay-induced Sprague-Dawley rat model of amnesia assessed as increase in reduction in social investigation time at 1 mg/kg, po administered as single dose prior to 1 hr training and measured after 30 mins (reference value: 0.39%); format: functional; design: scale not given: the % may be the effect or the level left
Rattus norvegicus [22] = experiment: Memory enhancement effect in time-delay induced Wistar rat model of amnesia assessed as exploration time for novel object at 1 mg/kg, po administered as single dose after acquisition trial by novel object recognition test (reference value: 12.81 sec); format: functional
Rattus norvegicus [23] = experiment: Memory enhancement effect in scopolamine-induced Wistar rat model of amnesia assessed as exploration time for object2 in acquisition trial at 0.05 mg/kg, po administered as single dose and measured on day 8 by novel object recognition test (reference value: 15.63 sec); format: functional
[24] = Metabolic stability in mouse liver microsomes assessed as compound remaining at 1 uM preincubated for 5 mins followed by NADPH addition and measured after 30 mins by LC-MS/MS analysis; format: ADME, Microsome; details: read-out: Stability
[25] = Unbound brain-to-plasma concentration ratio in Wistar rat at 10 mg/kg, po after 8 hrs by LC-MS/MS analysis; format: ADME, organism-based; details: read-out: K(p,uu,brain)
[26] = Tmax in Wistar rat at 10 mg/kg, po after 0.25 to 144 hrs by LC-MS/MS analysis; format: ADME, organism-based; details: in vivo
[27] = Cmax in Beagle dog at 10 mg/kg, po after 0.25 to 144 hrs by LC-MS/MS analysis; format: ADME, organism-based, Canis lupus familiaris; design: dose 10 mg/kg, route oral; details: in vivo
Cytochrome P450 2C19 = Cytochrome P450 2C19 (Homo sapiens, UniProt P33261); experiment: Inhibition of CYP2C19 (unknown origin) up to 10 uM; format: ADME
Rattus norvegicus [28] = experiment: Memory enhancement effect in time-delay induced Wistar rat model of amnesia assessed as increase in novel object discrimination index at 1 mg/kg, po administered as single dose and measured on day 9 by novel object recognition test (reference value: 0.03); format: functional
[29] = target: T1, Neuronal acetylcholine receptor subunit alpha-7; experiment: Positive allosteric modulatory activity against alpha7 nAChR in human IMR-32 cells assessed as potentiation of PNU-282987-induced Ca2+ […] in presence of alpha-bungarotoxin/methyllycaconitine by FLIPR assay; format: cell-based
Rattus norvegicus [30] = experiment: Memory enhancement effect in scopolamine-induced Wistar rat model of amnesia assessed as exploration time for object2 in acquisition trial at 0.05 mg/kg, po for 7 days and measured on day 8 by novel object recognition test (reference value: 15.63 sec); format: functional
Rattus norvegicus [31] = experiment: Memory enhancement effect in time-delay induced Wistar rat model of amnesia assessed as exploration time for object1 in acquisition trial at 0.05 mg/kg, po for 7 days and measured on day 8 by novel object recognition test (reference value: 13.73 sec); format: functional
Rattus norvegicus [32] = experiment: Memory enhancement effect in scopolamine-induced Wistar rat model of amnesia assessed as exploration time for familiar object in retention trial at 0.05 mg/kg, po administered as single dose and measured on day 9 by novel object recognition test (reference value: 8.59 sec); format: functional

T1 sequence (P36544 whole entry): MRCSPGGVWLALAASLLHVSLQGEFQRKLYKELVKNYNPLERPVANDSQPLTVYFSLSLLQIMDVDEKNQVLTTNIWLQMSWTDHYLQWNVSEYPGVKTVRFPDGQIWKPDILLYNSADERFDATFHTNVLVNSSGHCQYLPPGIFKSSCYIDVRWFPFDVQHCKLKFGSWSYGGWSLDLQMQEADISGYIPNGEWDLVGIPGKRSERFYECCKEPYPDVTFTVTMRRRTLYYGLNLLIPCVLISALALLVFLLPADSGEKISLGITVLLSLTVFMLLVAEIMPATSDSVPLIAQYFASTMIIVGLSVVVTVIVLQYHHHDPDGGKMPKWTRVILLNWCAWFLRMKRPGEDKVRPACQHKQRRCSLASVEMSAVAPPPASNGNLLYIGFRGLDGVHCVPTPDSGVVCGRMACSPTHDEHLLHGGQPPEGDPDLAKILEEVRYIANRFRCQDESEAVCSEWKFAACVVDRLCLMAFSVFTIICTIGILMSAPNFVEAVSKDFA
Sequence of Cytochrome P450 2C19 (P33261 whole entry): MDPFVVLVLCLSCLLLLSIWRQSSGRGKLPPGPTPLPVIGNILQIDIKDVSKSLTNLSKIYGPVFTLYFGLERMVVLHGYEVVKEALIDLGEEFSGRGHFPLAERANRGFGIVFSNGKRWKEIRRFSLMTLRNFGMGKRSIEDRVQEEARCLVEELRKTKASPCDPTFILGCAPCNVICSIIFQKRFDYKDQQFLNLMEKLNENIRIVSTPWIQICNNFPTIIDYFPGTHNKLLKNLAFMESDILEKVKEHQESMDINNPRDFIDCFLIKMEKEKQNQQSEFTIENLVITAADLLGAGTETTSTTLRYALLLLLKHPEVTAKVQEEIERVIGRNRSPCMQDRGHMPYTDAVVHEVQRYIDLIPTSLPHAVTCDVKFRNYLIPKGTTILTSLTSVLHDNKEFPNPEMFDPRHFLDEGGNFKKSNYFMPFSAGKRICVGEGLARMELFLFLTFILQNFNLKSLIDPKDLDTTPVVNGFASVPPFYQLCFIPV

## CCC(=O)c1sc(-c2ccc(Cl)cc2)c(C)c1-c1ccc(S(N)(=O)=O)cc1
[1]
  Kp at 8 h: 7.7
[2]
  Kp at 144 h: 9
[3]
  Vd: 4 L/kg
[4]
  Cmax: 25.1 to 1620 ng/mL
Rattus norvegicus [5]
  Activity_index: 0.56
[6]
  fraction unbound at 16 h, 5 µM: 0.0031
[7]
  Cmax: 0.9 µM
[8]
  concentration at 48 h: 5.53 µM
Rattus norvegicus [9]
  Activity_index: 0.3
Rattus norvegicus [10]
  Activity_index: 0.5
Rattus norvegicus [11]
  Time: 7.64 s
Rattus norvegicus [12]
  Time: 16.55 s
Rattus norvegicus [13]
  Time: 16.07 s
Rattus norvegicus [14]
  Activity_index: 0.45
[15]
  half-life: 14 h
[16]
  fraction unbound at 16 h, 5 µM: 0.0116
Rattus norvegicus [17]
  Activity_index: 0.5
[18]
  fold change (FC): 22
[19]
  Kp uu at 1 h: 0.56
Rattus norvegicus [20]
  Time: 16.07 s
Rattus norvegicus [21]
  Activity: 31.73%
Rattus norvegicus [22]
  Time: 24.46 s
Rattus norvegicus [23]
  Time: 18.31 s
[24]
  remaining at 0.5 h, 1 µM: 96%
[25]
  Kp uu at 8 h: 0.93
[26]
  Tmax: 5.2 h
[27]
  Cmax: 5 µM
Cytochrome P450 2C19
  inhibition (INH): Not Active
Rattus norvegicus [28]
  Activity_index: 0.44
[29]
  Activity: inactive
Rattus norvegicus [30]
  Time: 18.31 s
Rattus norvegicus [31]
  Time: 15.2 s
Rattus norvegicus [32]
  Time: 8.03 s
